{"source": "the NIST ThermoML archive (doi:10.1016/j.jct.2017.02.009)", "key": {"[1]": {"settings": "100 kPa, Liquid; for mass density: Vibrating tube method; for viscosity: Capillary tube (Ostwald / Ubbelohde) method"}, "[2]": {"experiment": "xn = mol fraction of the nth substance listed", "settings": "100 kPa, Liquid, x1 = 1; for mass density: Vibrating tube method"}}, "note": "± gives the expanded uncertainty stated by the source."}
{"molecule": "C[S+](C)[O-]", "note": "[dimethyl sulfoxide]", "values": [{"measurement": "mass density", "setting": "[1]; 293.15 K", "result": "1100.2 ± 1", "unit": "kg/m3"}, {"measurement": "viscosity", "setting": "[1]; 298.15 K", "result": "1.985 ± 0.025", "unit": "mPa·s"}, {"measurement": "mass density", "setting": "[1]; 298.15 K", "result": "1095.2 ± 1", "unit": "kg/m3"}, {"measurement": "mass density", "setting": "[1]; 303.15 K", "result": "1090.2 ± 1", "unit": "kg/m3"}, {"measurement": "mass density", "setting": "[1]; 313.15 K", "result": "1080.2 ± 1", "unit": "kg/m3"}]}
{"molecule": "C[S+](C)[O-]", "note": "[dimethyl sulfoxide] + O=C1CCCO1", "values": [{"measurement": "mass density", "setting": "[2]; 293.15 K", "result": "1100.2 ± 1", "unit": "kg/m3"}, {"measurement": "viscosity", "setting": "[2]; 298.15 K, Capillary tube (Ostwald / Ubbelohde) method", "result": "1.985 ± 0.025", "unit": "mPa·s"}, {"measurement": "mass density", "setting": "[2]; 298.15 K", "result": "1095.2 ± 1", "unit": "kg/m3"}, {"measurement": "mass density", "setting": "[2]; 303.15 K", "result": "1090.2 ± 1", "unit": "kg/m3"}, {"measurement": "mass density", "setting": "[2]; 313.15 K", "result": "1080.2 ± 1", "unit": "kg/m3"}]}
{"molecule": "O=C1CCCO1", "note": "[γ-butyrolactone]", "values": [{"measurement": "mass density", "setting": "[1]; 293.15 K", "result": "1129.4 ± 1", "unit": "kg/m3"}, {"measurement": "viscosity", "setting": "[1]; 298.15 K", "result": "1.72 ± 0.024", "unit": "mPa·s"}, {"measurement": "mass density", "setting": "[1]; 298.15 K", "result": "1124.5 ± 1", "unit": "kg/m3"}, {"measurement": "mass density", "setting": "[1]; 303.15 K", "result": "1119.6 ± 1", "unit": "kg/m3"}, {"measurement": "mass density", "setting": "[1]; 313.15 K", "result": "1109.8 ± 1", "unit": "kg/m3"}]}
